In US10189819B2, “Factor IXa inhibitors” (MERCK SHARP & DOHME CORP., priority 2014, dated 2019):

Each compound was assayed against Factor IXa (Homo sapiens (Human), UniProt P00740) (assay: Determination of inhibitory activity against Factor IXa (cleavage of fluorescent peptide CH3SO2-D-CHG-Gly-Arg-AFC)). Conditions: read-out: FIXa IC50.
Type: biochemical
Procedure: Determination of Inhibitory Activity Against Factor IXa
Formation of a clot to stem bleeding at a site of blood vessel injury involves the coordinated activity of a group of plasma proteins that initiate and propagate fibrin formation and subsequently protect fibrin from premature degradation. Factor IX is a key component of the plasma system that forms a fibrin clot at a site of vascular injury. The activity of Factor IXa is measured by monitoring the cleavage of the fluorescent peptide, CH3SO2-D-CHG-Gly-Arg-AFC.AcOH (“CHG” is cyclohexyl-glycine and “AFC” is trifluoro aminomethyl coumarin). Factor IXa cleaves the amide bond between Arg and AFC, thereby releasing the AFC fluorophore. The free AFC can be detected with a fluorescence detector at an excitation wavelength of 405 nm and emission wavelength of 510 nm.

Factor IXa, sequence (P00740 227-461): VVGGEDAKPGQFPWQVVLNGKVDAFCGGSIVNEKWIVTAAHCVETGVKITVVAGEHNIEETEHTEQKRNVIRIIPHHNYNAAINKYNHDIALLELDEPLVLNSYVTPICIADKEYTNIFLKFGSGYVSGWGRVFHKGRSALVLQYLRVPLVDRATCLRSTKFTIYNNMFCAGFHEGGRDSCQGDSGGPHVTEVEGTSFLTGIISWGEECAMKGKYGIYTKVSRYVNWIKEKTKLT
Factor IXa, sequence (P00740 47-191 partner): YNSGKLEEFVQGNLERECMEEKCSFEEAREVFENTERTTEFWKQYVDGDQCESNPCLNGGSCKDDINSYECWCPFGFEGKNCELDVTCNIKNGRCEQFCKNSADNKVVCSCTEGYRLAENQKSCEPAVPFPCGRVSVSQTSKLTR

| SMILES | IC50 [nM] |
| --- | --- |
| Cc1ncn(-c2cc(Cl)c(C(=O)NCC(c3ccc(=O)[nH]c3)c3nc4ccc(Cl)cc4[nH]3)c(Cl)c2)n1 (racemic) [Example 39, 2,6-Dichloro-N-(2-(6-chloro-1H-benzo[d]imidazol-2-yl)-2-(6-oxo-1,6-dihydropyridin-3-yl)ethyl)-4-(3-methyl-1H-1,2,4-triazol-1-yl)benzamide 2,2,2-trifluoroacetate] | 2.4 |
| Cc1cc2nc(C(C)(CNC(=O)c3ccc(-n4cnnc4)cc3Cl)c3ccccc3)[nH]c2cc1C (single isomer, unassigned) [Example 69] | 55.2 |
| Cc1cc2nc([C@@H](CNC(=O)c3ccc(-n4cnnc4)cc3Cl)c3ccccc3)[nH]c2cc1C [Example 37, (R)-2-Chloro-N-(2-(5,6-dimethyl-1H-benzo[d]imidazol-2-yl)-2-phenylethyl)-4-(4H-1,2,4-triazol-4-yl)benzamide] | 15.7 |

Continued, values first:

| IC50 [nM] | SMILES |
| --- | --- |
| 32.7 | COc1ccc(C(CNC(=O)c2c(Cl)cc(-n3cnc(C)n3)cc2Cl)c2nc3ccc(Cl)cc3[nH]2)cn1 (racemic) [Example 40, (±)-2,6-Dichloro-N-(2-(6-chloro-1H-benzo[d]imidazol-2-yl)-2-(6-methoxypyridin-3-yl)ethyl)-4-(3-methyl-1H-1,2,4-triazol-1-yl)benzamide] |
| 20.5 | COc1cc2nc(C(CNC(=O)c3c(Cl)cc(-n4cnc(C)n4)cc3Cl)n3cc(CO)nn3)[nH]c2cc1Cl (racemic) [Example 71, (±)-2,6-Dichloro-N-(2-(6-chloro-5-methoxy-1H-benzo[d]imidazol-2-yl)-2-(4-(hydroxymethyl)-1H-1,2,3-triazol-1-yl)ethyl)-4-(3-methyl-1H-1,2,4-triazol-1-yl)benzamide] |
| 10.4 | Cc1cc2nc(C(CNC(=O)c3c(Cl)cc(-n4cc(CCO)nn4)cc3Cl)c3ccccc3)[nH]c2cc1C (single isomer, unassigned) [Example 1] |
| 26.4 | Cc1cc2nc([C@@H](CNC(=O)c3c(Cl)cc(-n4cnnn4)cc3Cl)c3ccccc3)[nH]c2cc1C [Example 2, (R)-2,6-dichloro-N-(2-(5,6-dimethyl-1H-benzo[d]imidazol-2-yl)-2-phenylethyl)-4-(1H-tetrazol-1-yl)benzamide] |
| 73.6 | Cc1cc2nc(C(CNC(=O)c3c(Cl)cc(-c4ccnc(C(=O)O)c4)cc3Cl)c3ccccc3)[nH]c2cc1C (centres unmarked) [Example 16, 4-(3,5-Dichloro-4-((2-(5,6-dimethyl-1H-benzo[d]imidazol-2-yl)-2-phenylethyl)carbamoyl)phenyl)picolinic acid] |

Same assay, conditions: read-out: hFIXa IC50

| SMILES | IC50 [nM] |
| --- | --- |
| Cc1cc2nc(C(CNC(=O)c3ccc(-n4cc(CCO)nn4)cc3Cl)c3ccccc3)[nH]c2cc1C (centres unmarked) [Example 3] | 21.9 |
| Cc1cc2nc(C(CNC(=O)c3c(Cl)cc(-n4cnnc4)cc3C(F)(F)F)c3ccccc3)[nH]c2cc1C (centres unmarked) [Example 5] | 21.8 |
| Cc1cc2nc(C(CNC(=O)c3c(F)cc(-n4cnnc4)cc3Cl)c3ccccc3)[nH]c2cc1C (centres unmarked) [Example 10] | 15.2 |
| Cc1cc2nc([C@@H](CNC(=O)c3ccc(-n4cnnn4)cc3Cl)c3ccccc3)[nH]c2cc1C [Example 12] | 78.3 |
| Cc1cc2nc(C(CNC(=O)c3c(Cl)cc(-c4cnc(OCCF)nc4)cc3Cl)c3ccccc3)[nH]c2cc1C (centres unmarked) [Example 21] | 378 |
| COC(=O)c1ccc(-c2cc(Cl)c(C(=O)NCC(c3ccccc3)c3nc4cc(C)c(C)cc4[nH]3)c(Cl)c2)cn1 (centres unmarked) [Example 23] | 544 |
| Cc1cc2nc(C(CNC(=O)c3c(Cl)cc(-c4cnc5ccccc5c4)cc3Cl)c3ccccc3)[nH]c2cc1C (centres unmarked) [Example 25] | 464 |
| Cc1cc2nc(C(CNC(=O)c3c(Cl)cc(-c4ccc(C(=O)O)nc4)cc3Cl)c3ccccc3)[nH]c2cc1C (centres unmarked) [Example 26] | 312 |
| Cc1cc2nc(C(CNC(=O)c3c(Cl)cc(-c4cnc(C5CC5)nc4)cc3Cl)c3ccccc3)[nH]c2cc1C (centres unmarked) [Example 29] | 654 |
| CCOC(=O)c1cc(-c2ccc(C(=O)NCC(c3ccccc3)c3nc4cc(C)c(C)cc4[nH]3)c(Cl)c2)ccn1 (centres unmarked) [Example 30] | 247 |
| Cc1cc2nc(C(CNC(=O)c3c(Cl)cc(-c4cnn(CCO)c4)cc3Cl)c3ccccc3)[nH]c2cc1C (centres unmarked) [Example 31] | 65.3 |
| Cc1cc2nc(C(CNC(=O)c3c(Cl)cc(-c4cn[nH]c4)cc3Cl)c3ccccc3)[nH]c2cc1C (centres unmarked) [Example 32] | 503 |
| Cc1cc2nc(C(CNC(=O)c3c(Cl)cc(-c4cncc(CO)c4)cc3Cl)c3ccccc3)[nH]c2cc1C (centres unmarked) [Example 34] | 10.3 |
| Cc1cc2nc(C(CNC(=O)c3c(Cl)cc(-c4ccnc(CO)c4)cc3Cl)c3ccccc3)[nH]c2cc1C (centres unmarked) [Example 36] | 52.5 |

Second part, the compound after the results:

| IC50 [nM] | SMILES |
| --- | --- |
| 63.1 | Cc1ncn(-c2cc(Cl)c(C(=O)NCC(c3ccccc3)c3nc4cc(C)c(C)cc4[nH]3)c(C(F)(F)F)c2)n1 (centres unmarked) [Example 4] |
| 20.8 | Cc1ncn(-c2cc(Cl)c(C(=O)NCC(c3ccccc3)c3nc4cc(C)c(C)cc4[nH]3)c(Cl)c2)n1 (centres unmarked) [Example 6] |
| 3.64 | Cc1cc2nc(C(CNC(=O)c3c(Cl)cc(-n4cnnc4)cc3Cl)c3ccccc3)[nH]c2cc1C (centres unmarked) [Example 7] |
| 6.99 | Cc1ncn(-c2cc(C)c(C(=O)NCC(c3ccccc3)c3nc4cc(C)c(C)cc4[nH]3)c(Cl)c2)n1 (centres unmarked) [Example 8] |
| 14.8 | COc1cc(-n2cnnc2)cc(Cl)c1C(=O)NCC(c1ccccc1)c1nc2cc(C)c(C)cc2[nH]1 (centres unmarked) [Example 9] |
| 8.05 | Cc1cc2nc(C(CNC(=O)c3c(C)cc(-n4cnnc4)cc3Cl)c3ccccc3)[nH]c2cc1C (centres unmarked) [Example 11] |
| 65.8 | COc1ncn(-c2ccc(C(=O)NCC(c3cccc(F)c3)c3nc4ccc(Cl)cc4[nH]3)c(Cl)c2)n1 (centres unmarked) [Example 13] |
| 40 | Cc1cc2nc(C(CNC(=O)c3c(Cl)cc(-n4cnnc4)cc3OC(F)(F)F)c3ccccc3)[nH]c2cc1C (centres unmarked) [Example 14] |
| 4.9 | Cc1cc(Cl)cc2[nH]c(C(CNC(=O)c3ccc(-n4cnnc4C)cc3Cl)c3cccc(F)c3)nc12 (centres unmarked) [Example 15] |
| 18.1 | Cc1cc2nc(C(CNC(=O)c3c(Cl)cc(-c4cncnc4)cc3Cl)c3ccccc3)[nH]c2cc1C (centres unmarked) [Example 17] |
| 403 | Cc1cc2nc(C(CNC(=O)c3c(Cl)cc(-c4cnn(CS(C)(=O)=O)c4)cc3Cl)c3ccccc3)[nH]c2cc1C (centres unmarked) [Example 18] |
| 343 | CCOC(=O)c1cc(-c2cc(Cl)c(C(=O)NCC(c3ccccc3)c3nc4cc(C)c(C)cc4[nH]3)c(Cl)c2)ccn1 (centres unmarked) [Example 19] |
| 276 | Cc1cc2nc(C(CNC(=O)c3c(Cl)cc(-c4cnc5c(c4)CCC(=O)N5)cc3Cl)c3ccccc3)[nH]c2cc1C (centres unmarked) [Example 20] |
| 44.7 | Cc1cc2nc(C(CNC(=O)c3c(Cl)cc(-c4cncc(C(C)(C)O)c4)cc3Cl)c3ccccc3)[nH]c2cc1C (centres unmarked) [Example 22] |
| 141 | Cc1cc2nc(C(CNC(=O)c3c(Cl)cc(-c4cnc5c(c4)CNC5=O)cc3Cl)c3ccccc3)[nH]c2cc1C (centres unmarked) [Example 24] |
| 21 | Cc1cc2nc(C(CNC(=O)c3c(Cl)cc(-c4ccc5nncn5c4)cc3Cl)c3ccccc3)[nH]c2cc1C (centres unmarked) [Example 27] |
| 64.8 | Cc1cc2nc(C(CNC(=O)c3c(Cl)cc(-c4ccn5ncnc5c4)cc3Cl)c3ccccc3)[nH]c2cc1C (centres unmarked) [Example 28] |
| 538 | Cc1cc2nc(C(CNC(=O)c3ccc(-c4ccnc(C(=O)O)c4)cc3Cl)c3ccccc3)[nH]c2cc1C (centres unmarked) [Example 33] |
| 42.7 | Cc1cc2nc(C(CNC(=O)c3c(Cl)cc(-c4ccc(CO)nc4)cc3Cl)c3ccccc3)[nH]c2cc1C (centres unmarked) [Example 35] |
